Assay results as given in ChEMBL document CHEMBL1125472, “5-lipoxygenase: properties, pharmacology, and the quinolinyl(bridged)aryl class of inhibitors” (J Med Chem, 1992).
Each block holds one compound with its values, some of them ahead of it.

Tests used:
[1] = organism: Rattus norvegicus; assay: The compound was tested for inhibitory activity against […] synthesis in rat macrophages; assay type: functional
[2] = molecular target: T1, Polyunsaturated fatty acid 5-lipoxygenase (Homo sapiens, UniProt P09917); assay: The compound was tested for inhibitory activity against 5-lipoxygenase in human polymorphonuclear leukocytes[PMNS]; assay type: cell-based
T1 sequence (P09917 whole entry): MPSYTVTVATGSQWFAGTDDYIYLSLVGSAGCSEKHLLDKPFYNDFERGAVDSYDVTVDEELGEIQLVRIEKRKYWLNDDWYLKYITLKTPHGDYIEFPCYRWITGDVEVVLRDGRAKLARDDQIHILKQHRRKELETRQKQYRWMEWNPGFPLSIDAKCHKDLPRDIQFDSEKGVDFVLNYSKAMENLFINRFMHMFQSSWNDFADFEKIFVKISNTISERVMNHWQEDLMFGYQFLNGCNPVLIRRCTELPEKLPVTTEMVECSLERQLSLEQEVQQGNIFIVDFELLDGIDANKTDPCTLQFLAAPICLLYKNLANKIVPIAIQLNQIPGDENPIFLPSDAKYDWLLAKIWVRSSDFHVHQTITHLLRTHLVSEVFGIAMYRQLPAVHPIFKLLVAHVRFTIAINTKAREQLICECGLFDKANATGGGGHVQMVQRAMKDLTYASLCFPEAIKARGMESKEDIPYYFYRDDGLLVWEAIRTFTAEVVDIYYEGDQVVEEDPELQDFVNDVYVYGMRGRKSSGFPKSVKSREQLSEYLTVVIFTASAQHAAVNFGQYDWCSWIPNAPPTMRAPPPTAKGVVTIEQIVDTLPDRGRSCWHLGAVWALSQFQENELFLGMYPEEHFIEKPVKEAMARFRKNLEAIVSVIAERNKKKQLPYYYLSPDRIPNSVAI

[3] = molecular target: T2, Polyunsaturated fatty acid 5-lipoxygenase (Rattus norvegicus) (UniProt P12527); assay: The compound was tested for inhibition of isolated 5-Lipoxygenase
T2 sequence (whole entry): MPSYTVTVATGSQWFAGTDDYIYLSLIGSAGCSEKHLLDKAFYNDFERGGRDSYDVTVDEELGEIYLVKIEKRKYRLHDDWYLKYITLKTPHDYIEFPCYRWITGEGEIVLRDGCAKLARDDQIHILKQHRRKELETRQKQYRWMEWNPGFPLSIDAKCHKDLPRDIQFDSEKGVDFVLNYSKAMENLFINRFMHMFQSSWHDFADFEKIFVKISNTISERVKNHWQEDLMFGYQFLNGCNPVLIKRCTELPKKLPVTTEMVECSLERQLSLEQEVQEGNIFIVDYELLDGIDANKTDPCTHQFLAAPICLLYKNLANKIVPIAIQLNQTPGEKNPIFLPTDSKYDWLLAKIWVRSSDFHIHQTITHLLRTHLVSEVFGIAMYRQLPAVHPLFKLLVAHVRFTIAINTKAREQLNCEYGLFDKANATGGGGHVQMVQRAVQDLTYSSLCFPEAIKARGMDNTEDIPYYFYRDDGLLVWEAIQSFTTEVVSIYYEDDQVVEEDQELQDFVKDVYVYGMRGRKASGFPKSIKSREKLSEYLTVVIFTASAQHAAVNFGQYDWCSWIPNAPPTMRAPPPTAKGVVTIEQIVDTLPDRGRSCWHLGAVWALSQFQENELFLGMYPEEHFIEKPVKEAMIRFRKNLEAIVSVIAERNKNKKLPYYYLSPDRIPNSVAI

[4] = tested on: RBL-2H3; assay: The compound was tested for inhibition LTC4 synthesis; assay type: functional, Rattus norvegicus
[5] = organism: Mus musculus; assay: The compound was tested for inhibitory activity against LTC4 synthesis in mouse peritoneal macrophages; assay type: functional
[6] = organism: Mus musculus; assay: The compound was tested for inhibition of prostaglandin E2[PGE2] synthesis; assay type: functional, organism-based
[7] = organism: Mus musculus; assay: The compound was tested for inhibition of thromboxane B2 synthesis; assay type: functional, organism-based
[8] = tested on: RBL-2H3; assay: The compound was tested for inhibition of translocation in SAR in RBL-2H3 cells; assay type: functional, Rattus norvegicus
[9] = tested on: RBL-1; assay: The compound was tested for inhibitory activity against 5-HETE synthesis in rat RBL-1; assay type: functional, cell-based
[10] = molecular target: T3, Polyunsaturated fatty acid 5-lipoxygenase (Rattus norvegicus, UniProt P12527); assay: The compound was tested for inhibitory activity against 5-lipoxygenase in rat RBL-1; assay type: cell-based
T3 sequence (P12527 whole entry): T2 sequence (whole entry)

[11] = molecular target: T4, Prostaglandin G/H synthase (cyclooxygenase) (Mus musculus, UniProt P22437+Q05769); assay: The compound was tested for inhibitory activity against Prostaglandin G/H synthase in mouse macrophage; assay type: protein assay
T4 sequence (P22437 whole entry): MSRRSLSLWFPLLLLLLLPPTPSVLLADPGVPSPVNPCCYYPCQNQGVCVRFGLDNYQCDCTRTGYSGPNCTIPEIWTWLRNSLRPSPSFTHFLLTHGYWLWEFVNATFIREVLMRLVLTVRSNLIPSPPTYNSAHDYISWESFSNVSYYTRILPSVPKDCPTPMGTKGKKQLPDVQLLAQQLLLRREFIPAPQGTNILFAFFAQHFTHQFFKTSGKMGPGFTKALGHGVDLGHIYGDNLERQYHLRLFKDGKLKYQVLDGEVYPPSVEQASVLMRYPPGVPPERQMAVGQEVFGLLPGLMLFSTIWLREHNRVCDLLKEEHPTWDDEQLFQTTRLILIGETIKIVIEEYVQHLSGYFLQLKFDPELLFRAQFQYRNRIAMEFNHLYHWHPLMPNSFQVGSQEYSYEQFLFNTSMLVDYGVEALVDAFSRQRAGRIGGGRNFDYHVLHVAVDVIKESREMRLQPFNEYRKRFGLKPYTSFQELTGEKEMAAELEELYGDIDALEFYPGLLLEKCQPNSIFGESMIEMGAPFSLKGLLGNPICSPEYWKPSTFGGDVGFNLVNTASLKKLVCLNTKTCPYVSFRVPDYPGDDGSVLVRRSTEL
T4 sequence (Q05769 whole entry): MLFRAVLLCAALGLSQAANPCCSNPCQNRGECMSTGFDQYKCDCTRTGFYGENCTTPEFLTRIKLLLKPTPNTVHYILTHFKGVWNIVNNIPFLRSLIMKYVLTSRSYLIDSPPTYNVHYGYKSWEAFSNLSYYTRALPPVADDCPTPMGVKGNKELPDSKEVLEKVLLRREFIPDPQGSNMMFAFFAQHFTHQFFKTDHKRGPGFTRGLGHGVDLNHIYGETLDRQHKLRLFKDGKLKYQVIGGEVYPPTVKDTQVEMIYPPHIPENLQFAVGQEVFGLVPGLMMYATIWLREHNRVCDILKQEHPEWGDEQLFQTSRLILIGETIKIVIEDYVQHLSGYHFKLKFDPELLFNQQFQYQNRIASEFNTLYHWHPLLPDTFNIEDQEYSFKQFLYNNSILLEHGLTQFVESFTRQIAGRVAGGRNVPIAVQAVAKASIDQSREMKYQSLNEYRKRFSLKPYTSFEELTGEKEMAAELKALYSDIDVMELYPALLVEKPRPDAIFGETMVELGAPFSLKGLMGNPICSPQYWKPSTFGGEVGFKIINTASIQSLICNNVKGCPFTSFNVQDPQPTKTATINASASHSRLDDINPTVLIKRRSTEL

[12] = molecular target: T3, Polyunsaturated fatty acid 5-lipoxygenase; assay: The compound was tested for inhibitory activity against 5-lipoxygenase in rat polymorphonuclear leukocytes[PMNS] (in vitro); assay type: cell-based
[13] = tested on: Mus musculus; assay: The effective dose for inhibition of mouse zymosan peritonitis (in vivo); assay type: functional
[14] = molecular target: Cyclooxygenase (Rattus norvegicus) (UniProt P35355+Q63921); assay: The compound was tested for inhibition of Prostaglandin G/H synthase in rat polymorphonuclear leukocytes[PMNS] at 100 uM concentration; assay type: functional, cell-based
[15] = tested on: Rattus norvegicus; assay: The effective dose after peroral administration for antiinflammatory activity against rat carrageenan edema; assay type: functional; details: po
[16] = Oral bioavailability was determined; range 49-102%; assay type: ADME, organism-based; details: in vivo, read-out: Bioavailabiility
[17] = tested on: Cavia porcellus; assay: The inhibitory dose for antigen induced bronchoconstriction in guinea pig after peroral administration; assay type: functional; details: po, read-out: ID50 (the source's name)
[18] = organism: Cavia porcellus; assay: The compound was tested for blocking of LTD4-induced contractions of guinea pig trachea; assay type: functional; details: read-out: pA2 (converted)
[19] = organism: Mus musculus; assay: The compound was tested for inhibitory activity which inhibits LTC4 synthesis by zymosan-activated mouse peritoneal macrophages; assay type: functional
[20] = The compound was tested for inhibitory activity which inhibits prostaglandin E2[PGE2] synthesis by zymosan-activated mouse peritoneal macrophages; assay type: functional
[21] = organism: Rattus norvegicus; assay: The compound was tested for inhibitory activity against synthesis of immunoreactive LTB4; assay type: functional
[22] = organism: Rattus norvegicus; assay: The compound was tested for inhibitory activity against synthesis of immunoreactive thromboxane B2 in rat PMNs; assay type: functional
[23] = tested on: Rattus norvegicus; assay: The compound was tested for inhibition in rat carrageenan paw edema assay; assay type: functional
[24] = Plasma half-life was determined; 0.5-17.7h; assay type: ADME
[25] = tested on: RBL-1; assay: The compound was tested for inhibitory activity in rat RBL-1 cells; assay type: functional, cell-based
[26] = molecular target: T3, Polyunsaturated fatty acid 5-lipoxygenase; assay: The compound was tested for inhibitory activity against 5-lipoxygenase using rat polymorphonuclear leukocytes[PMNS]
[27] = tested on: Cavia porcellus; assay: The compound was tested for inhibition of LTD4-induced bronchoconstriction in guinea pig at 50 mg/kg (in vivo); assay type: functional; details: read-out: Inhibition
[28] = molecular target: T5, Cyclooxygenase (Rattus norvegicus, UniProt P35355+Q63921); assay: The compound was tested for inhibitory activity against Prostaglandin G/H synthase using rat polymorphonuclear leukocytes[PMNS]
T5 sequence (P35355 whole entry): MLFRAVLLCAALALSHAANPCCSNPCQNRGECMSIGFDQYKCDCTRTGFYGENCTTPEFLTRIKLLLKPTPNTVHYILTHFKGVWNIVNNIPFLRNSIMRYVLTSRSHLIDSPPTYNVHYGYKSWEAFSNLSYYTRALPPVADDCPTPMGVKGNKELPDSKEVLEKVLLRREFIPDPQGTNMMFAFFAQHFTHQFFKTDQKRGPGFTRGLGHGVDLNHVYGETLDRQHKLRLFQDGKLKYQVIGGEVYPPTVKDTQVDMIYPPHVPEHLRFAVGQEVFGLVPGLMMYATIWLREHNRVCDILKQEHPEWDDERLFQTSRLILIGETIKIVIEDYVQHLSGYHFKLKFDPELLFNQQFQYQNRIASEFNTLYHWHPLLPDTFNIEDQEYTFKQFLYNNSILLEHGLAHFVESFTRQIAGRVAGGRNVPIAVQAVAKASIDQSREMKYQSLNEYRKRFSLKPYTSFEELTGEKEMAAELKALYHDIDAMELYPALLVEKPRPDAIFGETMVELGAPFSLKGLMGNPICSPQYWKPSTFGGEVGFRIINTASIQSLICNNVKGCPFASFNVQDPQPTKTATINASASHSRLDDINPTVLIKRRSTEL
T5 sequence (Q63921 whole entry): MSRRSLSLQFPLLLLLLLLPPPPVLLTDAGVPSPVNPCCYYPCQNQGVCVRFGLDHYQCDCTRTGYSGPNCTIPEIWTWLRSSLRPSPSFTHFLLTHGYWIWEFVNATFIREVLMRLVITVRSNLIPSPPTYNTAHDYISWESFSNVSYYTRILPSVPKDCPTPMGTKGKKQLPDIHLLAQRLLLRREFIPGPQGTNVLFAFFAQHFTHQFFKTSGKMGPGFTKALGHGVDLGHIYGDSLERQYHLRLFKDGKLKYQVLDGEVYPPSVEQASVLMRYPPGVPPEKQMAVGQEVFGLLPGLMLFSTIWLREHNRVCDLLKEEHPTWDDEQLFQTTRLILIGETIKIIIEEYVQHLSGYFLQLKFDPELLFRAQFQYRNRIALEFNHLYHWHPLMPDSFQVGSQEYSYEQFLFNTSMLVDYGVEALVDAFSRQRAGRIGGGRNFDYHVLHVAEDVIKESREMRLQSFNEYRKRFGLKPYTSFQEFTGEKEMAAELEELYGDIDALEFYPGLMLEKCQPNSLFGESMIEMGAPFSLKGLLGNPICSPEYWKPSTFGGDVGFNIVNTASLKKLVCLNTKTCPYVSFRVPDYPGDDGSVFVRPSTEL

SMILES: O=C(O)c1ccc(CN(Cc2cccc(F)c2)c2ccc(OCc3ccc4ccccc4n3)cc2)cc1
IC50 [2]: 20 nM

SMILES: COC(=O)CCC(=O)N(O)c1cccc(OCc2ccc3ccccc3n2)c1
Inhibition [3]: 1530 nM
Inhibition [4]: 780 nM
IC50 [5]: 450 nM
IC50 [6]: 7.2 µM
IC50 [7]: 4.52 µM
Inhibition [8]: 750 nM

SMILES: CC1=C(C)C(=O)C(Cc2cccnc2)=C(C)C1=O
IC50 [9]: 62 nM

SMILES: CCN1C(=S)N(c2ccc(N3CCN(c4ccc(O)cc4)CC3)cc2)C(=O)C1(C)C
IC50 [10]: 500 nM

SMILES: CC(C(=O)O)c1ccc2cc(OCc3ccc4ccccc4n3)ccc2c1 (stereo not drawn)
IC50 [12]: 130 nM
ED50 [13]: 11.1 mg/kg
Inhibition [14]: 30%
ED50 [15]: 75 mg/kg

SMILES: C[C@H](OCC(=O)O)[C@@H](C)Sc1cc(C(C)(C)C)c(O)c(C(C)(C)C)c1
IC50 [25]: 3.7 µM

SMILES: Oc1cccc(OCc2ccc3ccccc3n2)c1
IC50 [26]: 6.07 µM
inhibition in vivo at 50 mg/kg [27]: 82%
IC50 [28]: > 100 µM

Now from value to compound, other results behind:

IC50 [1]: 80 nM
SMILES: CC1=C(C)C(=O)C(CCCCC#CCCCC#CCO)=C(C)C1=O [DOCEBENONE]

IC50 [11]: 4 nM
SMILES: Cc1c(CC(=O)O)c2cc(OCc3ccc4ccccc4n3)ccc2n1Cc1ccc(Cl)cc1

bioavailability [16]: 49%
IC50 [19]: 4.4 µM
IC50 [20]: 4.3 µM
IC50 [21]: 4.6 µM
IC50 [22]: 3.3 µM
half-life [24]: 30 min
SMILES: O=S(=O)(Nc1cccc(OCc2ccc3ccccc3n2)c1)C(F)(F)F [RITOLUKAST]
ED50 [17]: 0.6 mg/kg
Kb [18]: 24 nM
Inhibition [23]: 20%
